Marks after values point to notes of the source that are not given here.
Assays:
Type in all cases: in vivo
[1] = Intravenous administration to cattle: serum non-esterified fatty acid (NEFA) and serum urea nitrogen (SUN) levels
Excerpt: Intravenous administration of the compounds of the present invention to cattle increases serum non-esterified fatty acids and decreases serum urea. In this Example, angus/angus cross calves, both heifers and steers, weighing approximately 282 pounds (128 kg) initially to 788 pounds (357.8 kg) over the course of these studies, were placed in pens at 5 calves per pen. The cattle were acclimated to the pens for at least 1 week prior to initiating the study.
Calves were fed ad libitum twice daily, (approximately 6-15 pounds (2.7-6.8 kg)/day). During the treatment day, in the A.M. period, the feeding times were staggered to ensure that all animals were fed approximately one hour before the treatments were administered. During the P.M. treatment period, the cattle were fed immediately after receiving the P.M. injection.
After taking a pretreatment (T=O) blood sample from each animal, a 40 μg per kilogram dose of a test compound was administered intravenously in the jugular vein at 6:30 A.M. and 2:30 P.M. Each test compound was administered at a concentration of 1.00-1.25 mg/ml in a treatment vehicle that was a 50/50 mixture of polyethylene glycol 200/water.
A blood sample was taken at fifteen minutes post-treatment (T+15 min). The calves were returned to their respective pens until their next treatment, approximately eight hours later. The next morning at 6:30 A.M. a blood sample was collected from all calves at 24 hours post-treatment (T+24 h). All blood samples were analyzed for the non-esterified fatty acid level (NEFA) and serum urea nitrogen level (SUN). The post-treatment NEFA and SUN levels in each individual animal were compared with the levels found before treatment.

[2] = Weight gain, feed efficiency and carcass characteristics, last 14 days of growing period in broiler chickens; details: for Dressing Percentage / Fat Pad Weight / Final Weight / Hot Carcass Weights / Pen Feed Intake / Total 14 day Weight Gain / Viscera Weight / Feed Efficiency F/G: day 35-49; for Feed Efficiency F/G: pen feed intake/total pen weight; for increase in weight gain over control / improvement of feed efficiency versus control: 14-day treatment period
Excerpt: Approximately 1500 Peterson-Hubbard, day-old, male chicks were used in a randomized, complete-block design with 4 treatments (Control, Clenbuterol at 1 PPM, and Compound 6 at 3 and 15 PPM (mg/kg feed)). The testing facility contained 36 pens, divided equally into 6 blocks. Treatments were randomly allotted to pens within each block. Each treatment consisted of 6 pens with 10 birds per pen.
Day-of-age birds were obtained from Pine Manor Hatchery in Goshen, Ind. Approximately 40 birds per pen were set at random upon receipt. On day 30 of the growout period, all birds were weighed and the 15 birds closest to the block mean were selected. These birds were allowed to acclimate until day 35 of age. On that day, all remaining birds were weighed again, and the 10 birds/pen closest to the block mean were chosen for the treatment phase. Birds were provided ad libitum access to feed and water throughout the trial. All birds were fed a 23% crude protein corn-soy ration from day 1 until day 18 of age. The feed was changed to a 20% crude protein corn-soy ration from day 18 to day 49. The treatment feed was mixed using the same 20% crude protein basal ration. Treatments were administered in the feed from day 35 through day 49. Feed consumption was calculated over the entire 14-day treatment period. Birds were weighed at trial completion (day 49), and transported to Purdue University, West Lafayette, Ind. 47907, U.S.A. meat laboratory for slaughter and carcass measurements on day 50. Weights of the hot carcass, fat pad, and viscera were taken on all animals.

[3] = 28-day cattle study, orally administered Compound 6: growth and carcass measurements; details: for Feed efficiency / Yield grade (YG) / area of the longissimus dorsi muscle at the twelfth rib: oral, 28 days
Experimental: Thirty-two Angus crossbred steers were blocked by weight into a heavy (4 heaviest blocks, avg. initial BW=1226 lb. (557 kg)) and a light (4 lightest blocks, avg. initial BW=1164 lb. (528 kg)) replication. The steers within each block were assigned to one of four treatments (8 steers/treatment) to investigate the effects of orally administered Compound 6 on the growth and carcass measurements when fed to cattle for 28 days immediately prior to slaughter. The treatments included a CONTROL (0.0 mg Compound 6 per kg BW), and three levels of Compound 6 (LOW, 0.125 mg Compound 6 per kg BW; MED, 0.250 mg Compound 6 per kg BW; HIGH, 0.500 mg Compound 6 per kg BW). Compound 6 was mixed with ground corn and fed to the steers as a top dress on a portion of their daily feed. The CONTROL steers received a similar amount of a ground corn top dress. The steers were required to consume the initial feed and top dress before the remaining amount of feed was issued. The basal ration was a commercially available feed (19.3% CP, DM basis). Both feed and water were available ad libitum. The steers were individually housed in 12 ft×48 ft pens equipped with an individual feed bunk and automatic waterer. On day 28 the steers were weighed and a blood sample collected prior to being shipped for slaughter and subsequent carcass evaluation.

## CC(C)(Cc1ccc(Oc2ncccc2C(N)=O)cc1)NC[C@H](O)COc1cccc2[nH]ccc12 [Compound 6, (S)-2-[4-[2-[2-Hydroxy-3-(1H-indol-4-yloxy)propylamino]-2-methylpropyl]-phenoxy]-3-pyridinecarboxamide]
[1]; 40 μg per kilogram i.v. twice, T+24 h minus T=0, mean of five animals
  ΔNEFA 24 Hours: -1.44 µmol/L
[1]; 40 μg per kilogram i.v., T+15 min minus T=0, mean of five animals
  ΔNEFA 15 Min.: 40.7 µmol/L
[1]; Bos taurus, iv, 40 μg per kilogram i.v. twice, 24 hours post treatment vs baseline T=0, mean of five animals, read-out: Δ% SUN 24 Hours
  change in vivo at 0.04 mg/kg: -47%
[1]; fifteen minutes and twenty-four hours after administration
  lipolytic effects (non-esterified fatty acid levels): modest lipolytic effects
[1]; twenty-four hours after administration, compared with the corresponding carboxamide regioisomers
  anabolic effects (change in serum urea nitrogen levels): significantly greater
[2]; 3 PPM in feed
  Dressing Percentage: 72.43*
  Fat Pad Weight: 28.67 g
  Final Weight: 3.02 kg
  Hot Carcass Weights: 2175.69* g
  Pen Feed Intake: 25.74 kg
  Total 14 day Weight Gain: 1.30 kg
  Viscera Weight: 283.04 g
  Feed Efficiency F/G: 1.95
[2]; 3 PPM, P=0.0987
  increase in weight gain over control: 3.17%
[2]; 3 PPM, P=0.2936
  improvement of feed efficiency versus control: 2.50%
[2]; 3 PPM, P=0.0174
  increase in hot carcass weights compared to control: 2.50%
[2]; 3 PPM, P=0.1069
  increase in fat pad weight: 9.68%
[2]; 3 PPM, P=0.3981
  decrease in viscera weights with respect to control: 1.50%
[2]; 15 PPM in feed
  Dressing Percentage: 72.63**
  Fat Pad Weight: 27.21 g
  Final Weight: 3.02 kg
  Hot Carcass Weights: 2182.55** g
  Pen Feed Intake: 25.25 kg
  Total 14 day Weight Gain: 1.30 kg
  Viscera Weight: 285.49 g
  Feed Efficiency F/G: 1.94
[2]; 15 PPM, P=0.0756
  increase in weight gain over control: 3.17%
[2]; 15 PPM, P=0.1957
  improvement of feed efficiency versus control: 3.00%
[2]; 15 PPM, P=0.0078
  increase in hot carcass weights compared to control: 2.82%
[2]; 15 PPM, P=0.4814
  increase in fat pad weight: 4.09%
[2]; 15 PPM, P=0.7279
  decrease in viscera weights with respect to control: 0.65%
[3]; Compound 6 treatments vs CONTROL, P<0.005
  Conformation score: higher
[3]; Compound 6 treatments vs CONTROL, P>0.78
  Fat thickness at the twelfth rib: not different
[3]; Compound 6 treatments vs CONTROL, F-test P=0.1138, Treatment P<0.05
  Dressing percent: to be higher
[3]; HIGH, 0.500 mg per kg BW
  Feed efficiency: 4.18 pound of feed per pound of gain
  Yield grade (YG): 2.46
  area of the longissimus dorsi muscle at the twelfth rib: 14.5 in^2
[3]; LOW, 0.125 mg per kg BW
  Feed efficiency: 4.36 pound of feed per pound of gain
  area of the longissimus dorsi muscle at the twelfth rib: 13.5 in^2
[3]; LOW, 0.125 mg per kg BW, lower value = more saleable meat
  Yield grade (YG): 2.76
[3]; MED, 0.250 mg per kg BW
  Feed efficiency: 4.19 pound of feed per pound of gain
  Yield grade (YG): 2.51
  area of the longissimus dorsi muscle at the twelfth rib: 14.3 in^2
[3]; among the treatments, P>0.12, calculated by Hankins and Howe equations
  carcass composition (% fat, % protein, % moisture, % bone): did not differ statistically
[3]; among the treatments, P>0.90
  USDA quality grade and marbling scores: Neither the USDA quality grade nor marbling scores differed
[3]; between the treatments (CONTROL, LOW, MED, HIGH), P>0.47
  Daily dry matter intake: did not differ

— patent US6841563B1, “Aryloxy propanolamines for improving livestock production” (Eli Lilly and Company, priority 1999, dated 2005)
